Legend:
[1] = test system: DDPAC I17T MAPT mini-gene (exon 10 splicing); assay: 4R/3R MAPT mRNA by RT-qPCR, HeLa cells transfected with DDPAC I17T mini-gene; assay type: cell-based
Experimental: (§1) RNA Isolation and Real-Time Quantitative PCR (RT-qPCR). HeLa cells were treated as described in the Luciferase Reporter assay to Study Exon 10 Alternative Splicing. LAN5 cells were seeded in 12-well plates at 0.2×10^6 cells per well, treated with compound or ASO, and incubated for 48 h. Compound stocks prepared in DMSO and ASO stocks prepared in water were diluted in growth medium and added to cells. Total RNA was extracted from cells and analyzed via RT-qPCR to determine levels of 3R and 4R tau mRNA. In brief, the cells were washed with 1×DPBS and then lysed in the well using 300 μL of Lysis Buffer provided in a Quick-RNA MiniPrep kit (Zymo Research), which was used to extract total RNA per the manufacturer's protocol including the on-column DNase I digestion. The concentration of total RNA was measured by NanoDrop 2000 (Thermo Fisher Scientific). Only samples with OD260/OD280>1.8 were carried forward for analysis. Reverse transcription (RT) was carried out on 200 ng of total RNA using a qScript cDNA synthesis kit (QuantaBio) in a total volume of 10 μL according to the manufacturer's protocol. An Applied Biosystems QS5 384-well PCR system was used to complete qPCR reactions with Power SYBR Green Master Mix (Life Technologies), 600 nM each primer (Table S3), 20 ng of cDNA (1 μL of the RT reaction), in a total volume of 33 μL. Technical triplicates (10 μL each) were aliquoted into 384-well qPCR plates (Applied biosystems, 4483285). Subsequent qPCR analysis was performed using an Applied Biosystems QS5 384-well PCR system (software v.1.3.0). 4R/3R ratio were analyzed using ΔΔCt method using Equation 2: […]
(§2) where ΔCt 4R or ΔCt 3R is the difference between the Ct values for the 4R or 3R MAPT mRNA and a housekeeping gene (18S rRNA) in total RNA from cells.

[2] = test system: phosphorylated tau / NeuN positive neurons in cortex; assay: Brain immunohistochemistry in htau mice (AT8, NeuN); assay type: in vivo, htau mouse; conditions: 100 mg/kg p.o. q.o.d.
Experimental: Brain Tissue Histology. Left brain hemispheres of htau mice were harvested for total RNA. Right brain hemispheres (unfrozen) of htau mice were stored in 10% neutral buffered formalin (VWR) for 48 h. Tissue processing, embedding, and sectioning were performed and generated by the Scripps Florida Histology Core. Briefly, tissue was embedded in paraffin using a Sakura Tissue-Tek VIP5 paraffin processor, sectioned at 4 μm, and then mounted on positively charged slides for further immunostaining. The slides were stained on a Leica BondMax Immunostaining platform with the following primary antibodies: AT8 (MN1020, Invitrogen; 1:100 dilution) and NeuN (MAB377B, Chemicon; 1:500 dilution). After the slides were washed three times with 1×DPBS, a DAB Substrate Kit (Vector Laboratories, Inc.) was used to detect the primary antibodies per the manufacturer's protocol. After staining was complete, the slides were dehydrated, cover-slipped with Cytoseal 60 (Thermo Scientific), and imaged with a Leica DMI3000 B upright fluorescent microscope using 20× or 60× objective. Quantification was performed in a blinded fashion using ImageJ in which positivity was identified as aggregates (purple staining of AT8 or brown staining of NeuN) with diameter over 20 μm and staining signal over 185 that were kept constant across all treatment groups.

[3] = test system: WT I17T MAPT mini-gene (exon 10 splicing); assay: 4R/3R MAPT mRNA by RT-qPCR, HeLa cells transfected with WT I17T mini-gene; assay type: cell-based
Experimental: as §1, §2

[4] = test system: MAPT exon 10 splicing in htau mice; assay: MAPT exon 10 splicing in brain of htau mice (RT-qPCR); assay type: in vivo, human MAPT in htau mouse; conditions: 100 mg/kg p.o. q.o.d., 20 days
Experimental: as §1
hTau Mice Studies. htau mice and WT mice (C57BL/6J) were purchased from Jackson Laboratories. htau mice were maintained in-house through breeding between htau+/− mice. Genotype was confirmed by PCR amplification as previously described.^18 Only homozygous mice were used in in vivo studies. Mice were randomly assigned to a treatment group, which were age- and gender-matched (n=X). […] During the treatment period, nesting activity was assessed, as describe in Nesting Activity below. […]

## COc1cc(N)ncc1CCCN(C)CCCn1cnc2c3ccccc3n(C)c2c1=O [Compound 2, 3-(3-((3-(6-amino-4-methoxypyridin-3-yl)propyl)(methyl)amino)propyl)-5-methyl-3,5-dihydro-4H-pyrimido[5,4-b]indol-4-one]
[1]
  PSI10 (PSI of MAPT exon 10) vs vehicle: not WT I17T or DDPAC I17T mutant
[1]; 1 at 10 μM or 2 at 1.5 μM
  change in 4R/3R ratio (not statistically significant): < 16%
[2]
  AT8 antibody immunoreactivity (phosphorylated tau): reduced antibody immunoreactivity throughout the cortex
  NeuN (neuron viability): enhanced
[3]
  PSI10 (PSI of MAPT exon 10) vs vehicle: not WT I17T or DDPAC I17T mutant
[3]; 1 at 10 μM or 2 at 1.5 μM
  change in 4R/3R ratio (not statistically significant): < 16%
[4]; htau mice
  total human MAPT transcript levels: without alteration of total human MAPT transcript levels
[4]; htau mice brain
  reduction of 4R/3R ratio: 38±5%
  reduction of PSI10: 12±2%
